# Measured values taken from patent US12729225B2, “Non-canonical SWI/SNF complex and uses thereof” (Dana-Farber Cancer Institute, Inc., priority 2018, dated 2026).
# Values joined by “and” are separate entries in the source; they are usually repeats but may differ in a detail not shown here. Identical values can stand only once. “Also recorded” adds a separate entry of the source.
# How the values were obtained:
# SMARCA4 [1] = assay: ChIP-seq SMARCA4 occupancy in TTC1240 cells (spike-in normalized, DiffBind); format: cell-based, human; details: TTC1240, dBRD9 250 nM vs DMSO
# Description: (§1) Cells were fixed in 1% formaldehyde (Sigma Aldrich, F8775) for 10 min at 37° C. and quenched with 125 mM glycine for 5 min at 37° C. Cells were subsequently washed with cold PBS and stored at −80° C. until use. 10M cells per ChTP were used for EoL-1, MOLM-13, and Jurkat cell lines, and 5M cells per ChIP were used for SYO-1 and TTC1240 cell lines. Nuclei were extracted and chromatin was sonicated using the adaptive focused acoustics technology with a Covaris sonicator. Sonicated chromatin was used in immunoprecipitation reactions with indicated antibodies (Table 5) overnight followed by capture using Protein G Dynabeads (Thermo Fisher). […]
# (§2) For alignment of ChIP-seq data, Bowtie2, version 2.1.0 (Langmead & Salzberg (2012) Nat. Methods 9:357-359) was used to map reads to the hg19 human reference genome, using the parameter −k l.
# For spike-in normalization, Drosophila DNA was aligned to the dm3 genome using Bowtie2 version 2.1.0 with the parameter −k l. Duplicated reads were removed using samtools rmdup with the −b option. (SAMtools v1.3.1) As per manufacturer instructions, normalization ratios were calculated using the ratio of the total number of non-redundant mapped reads in each sample in comparison to the sample with the fewest non-redundant mapped reads. […]
# [2] = tested on: SYO-1 synovial sarcoma cells; assay: Proliferation curves (cell counts, Vi-CELL XR) in SYO-1 cells; format: cell-based, human; details: for cell count: three replicates
# Description: (§3) HEK-293T, G401, TTC1240, ESX, IMR-90, BJ Fibroblast, CRL7250, and NCIH-1437 cells were grown in DMEM (Gibco®) supplemented with 10% FBS, 1% GlutaMAX™ (Gibco®), and 1% penicillin-streptomycin (Gibco®). ES-2 cells were grown in McCoy's 5A (Gibco®) supplemented with 10% FBS, 1% GlutaMA™ (Gibco®), and 1% penicillin-streptomycin (Gibco®). EoL-1 and MOLM-13 were grown in RPMI (Gibco) supplemented with 10% FBS, 1% GlutaMAX™ (Gibco®), and 1% penicillin-streptomycin (Gibco®). RD were cultured in DMEM (Gibco®) supplemented with 10% FBS. HCT116 were grown in McCoy's 5A (Gibco®) supplemented with 10% FBS. Calu-6 were grown in EMEM (ATCC® 30-2003) supplemented with 10% FBS. SYO-1 was grown in DMEM without sodium pyruvate (Gibco®) supplemented with 10% FBS, 1% GlutaMAX™ (Gibco®), and 1% penicillin-streptomycin (Gibco®).
# ShRNA or gene delivery vectors, psPAX2, and pMD2.g were transfected into […] cells at a ratio of 4:3:1 using PEI (Polysciences, Inc.). Media was filtered through 0.4 micron filters 72 h post transfection and lentiviral particles were concentrated at 20,000 rpm for 2.5 h at 4° C. Lentiviral particles were resuspended in 200 μl PBS and cells were transduced using 1:1000 polybrene (Santa Cruz Biotechnology, cat. sc-134220). Two days post-infection, cells were selected with 2 μg/mL puromycin or 10 μg/mL blasticidin.
# (§4) 25,000-40,000 cells were plated per well of 12 well plates, or 50,000-60,000 per 10 cm plate, depending on cell line. Cell counts were performed in biological triplicate using a Vi-CELL™ XR Cell Counter (Beckman Coulter) on days indicated.
# SMARCA4 [3] = assay: ChIP-seq SMARCA4 occupancy in MOLM-13 cells; format: cell-based, human; details: MOLM13 (BAF-intact), dBRD9
# Description: as §1, with “Fisher). For ChIP-seq using spike-in chromatin, 15 ng of spike-in Drosophila chromatin (Active Motif, cat #530830) was added to each sample with 2 μg of spike-in antibody (Active Motif, cat #61686).” for “Fisher).”
# as §2
# MACS2 (Zhang et al. (2008) Genome Biol. 9:R137) version 2.1.0 was used to call peaks against input with a cutoff of q=0.001. […] For TTC1240 SMARCA4 tracks shown, the bedGraph file values were multiplied by the spike-in normalization ratios calculated as described above.
# MOLM-13 cells = assay: RNA-seq gene expression in MOLM-13 cells; format: cell-based, human; details: MOLM-13 (BAF-intact), 6 days of dBRD9
# Description: (§5) RNA was collected from 2 million cells per condition, in biological duplicate, using the RNeasy® Mini Kit (QIAGEN) according to manufacturer's protocol.
# (§6) Library preparation and sequencing of ChIP DNA and RNA was performed by the Molecular Biology Core Facilities at the Dana-Farber Cancer Institute (75 bp single end on Illuminia Nextseq 500).
# (§7) RNA-seq data reads were mapped using default parameters to hg19 using STAR (Dobin, et al. (2013) Bioinformatics 29:15-21) version 2.5.2a.
# (§8) RPKM values were calculated using GFOLD version 1.1.4 (Feng et al. (2012) Bioinformatics 28:2782-2788). Unless otherwise noted, log 2 fold change and Bonferri-corrected p values were generated using DESEQ2 v1.16.1, with reads mapped using RSUBREAD (Liao et al. (2013) Nucleic Acids Res. 41:e108) v1.26.1. […] All RNA-seq experiments were performed in biological replicate. Quality control metrics are available in Table 7.
# [4] = tested on: ESX epithelioid sarcoma (SMARCB1-intact) cells; assay: Proliferation curves (cell counts) in ESX cells; format: cell-based, human; details: dBRD9 250 nM vs DMSO
# Description: as §3, §4
# [5] = tested on: TTC1240 malignant rhabdoid tumor cells; assay: Proliferation curves (cell counts) in TTC1240 cells; format: cell-based, human; details: for Proliferation curve data for FIG. 6H (TTC1240): three replicates
# Description: as §3, §4
# [6] = tested on: TTC1240 malignant rhabdoid tumor cells; assay: RNA-seq gene expression in TTC1240 cells; format: cell-based, human; details: TTC1240, 7 days of 250 nM dBRD9
# Description: as §5, §6, §7, §8
# Genes associated with MRT superenhancers were downloaded from Chun et al. (Chun et al. (2016) Cancer Cell 29:394-406). Differential expression files of genes between MRT and normal tissues were downloaded from Chun et al., genes that were overexpressed in MRT with Bonferroni-adjusted p-value<0.01 were considered overexpressed in MRT.
# G401 MRT cells = assay: Proliferation curves (cell counts) in G401 cells; format: cell-based, human; details: for Proliferation curve data for FIG. 5K (G401): three replicates
# Description: as §3, §4
# [7] = tested on: SYO-1 synovial sarcoma cells; assay: RNA-seq gene expression profiling in SYO-1 cells; format: cell-based, human; details: SYO-1, dBRD9 (6 day)
# Description: as §5, §6, §7, §8
# (§9) The input for Gene Set Enrichment Analysis (GSEA) (Subramanian et al. (2005) Proc. Nat. Acad. Sci. U.S.A 102:15545-15550) was created by calculating the log 2 fold change between the mean RPKM of the replicates in each condition+1. […] GSEA Preranked was run over these files with default settings.
# [8] = tested on: CRL7250 human fibroblast cells; assay: RNA-seq of SS18-SSX-mediated gene activation in CRL7250 fibroblasts; format: cell-based; details: CRL7250 fibroblasts expressing V5-SS18-SSX1, with dBRD9
# Description: as §5, §6, §7, §8, §9
smiles,measurement,setting,value
"COc1cc(-c2cn(C)c(=O)c3cnccc23)cc(OC)c1CN(C)CC(=O)NCCOCCOCCNc1cccc2c1C(=O)N(C1CCC(=O)NC1=O)C2=O (centres unmarked) [dBRD9, 2-((2,6-dimethoxy-4-(2-methyl-1-oxo-1,2-dihydro-2,7-naphthyridin-4-yl)benzyl)(methyl)amino)-N-(2-(2-(2-((2-(2,6-dioxopiperidin-3-yl)-1,3-dioxoisoindolin-4-yl)amino)ethoxy)ethoxy)ethyl) acetamide]",SMARCA4 occupancy (ChIP-seq),SMARCA4 [1],significant decrease
same,cell count,"[2]; Day 0, second block",0.05
same,cell count,"[2]; Day 1, first block",0.03089 and 0.03603 and 0.03282
same,cell count,"[2]; Day 4, first block",0.1506 and 0.1319 and 0.1377
same,cell count,"[2]; Day 4, second block",0.171 and 0.18 and 0.216
same,cell count,"[2]; Day 6, first block",0.2722 and 0.3153 and 0.2555
same,cell count,"[2]; Day 7, second block",0.36 (2×) and 0.42
same,cell count,"[2]; Day 8, first block",0.5521 and 0.5701 and 0.5147
same,cell count,"[2]; Day 10, second block",1.17 and 1.38 and 1.14
same,cell count,"[2]; Day 13, second block",2.3 and 2.21 and 2.13
same,cell proliferation upon dBRD9 treatment,"[2]; SYO-1, dBRD9 500 nM (FIG. 6F) vs DMSO",attenuation of cell proliferation; also recorded: proliferative attenuation
same,loss in SMARCA4 occupancy (ChIP-seq),SMARCA4 [3],did not exhibit similar loss
same,preferential downregulation of genes enriched for dependencies (CERES),MOLM-13 cells,did not result in preferential downregulation
same,reduced proliferation upon dBRD9 treatment,[4],did not
same,Proliferation curve data for FIG. 6H (TTC1240),"[5]; Day 1, first block",0.01352 and 0.01738 and 0.01416
same,Proliferation curve data for FIG. 6H (TTC1240),"[5]; Day 1, second block",0.05469 (2×) and 0.03282
same,Proliferation curve data for FIG. 6H (TTC1240),"[5]; Day 3, first block",0.03024 and 0.04118 and 0.0296
same,Proliferation curve data for FIG. 6H (TTC1240),"[5]; Day 3, second block",0.2709 and 0.2793 and 0.2619
same,Proliferation curve data for FIG. 6H (TTC1240),"[5]; Day 5, first block",0.05791 and 0.06311 and 0.0534
same,Proliferation curve data for FIG. 6H (TTC1240),"[5]; Day 5, second block",0.9207 and 0.9419 and 0.9374
same,Proliferation curve data for FIG. 6H (TTC1240),"[5]; Day 7, first block",0.1853 and 0.2336 and 0.1628
same,Proliferation curve data for FIG. 6H (TTC1240),"[5]; Day 7, second block",2.184 and 2.334 and 2.133
same,proliferation upon dBRD9 treatment,"[5]; TTC1240 (SMARCB1-deficient MRT), dBRD9 250 nM vs DMSO",reduced proliferation
same,"expression of JUND, VGF, ID3, HOXC9, CREB3L1",[6],significantly downregulated
same,Proliferation curve data for FIG. 5K (G401),"G401 MRT cells; Day 1, first block",0.04568 and 0.02188 and 0.02252
same,Proliferation curve data for FIG. 5K (G401),"G401 MRT cells; Day 1, second block",0.1114 and 0.1126 and 0.1094
same,Proliferation curve data for FIG. 5K (G401),"G401 MRT cells; Day 3, first block",0.1287 (2×) and 0.1558
same,Proliferation curve data for FIG. 5K (G401),"G401 MRT cells; Day 3, second block",0.48 and 0.5096 and 0.442
same,Proliferation curve data for FIG. 5K (G401),"G401 MRT cells; Day 5, first block",0.453 and 0.5533 and 0.4292
same,Proliferation curve data for FIG. 5K (G401),"G401 MRT cells; Day 5, second block",1.005 and 1.058 and 0.9696
same,Proliferation curve data for FIG. 5K (G401),"G401 MRT cells; Day 7, first block",0.7669 and 0.9773 and 0.8281
same,Proliferation curve data for FIG. 5K (G401),"G401 MRT cells; Day 7, second block",1.468 and 1.621 and 1.556
same,proliferation upon dBRD9 treatment,"G401 MRT cells; G401 (SMARCB1-deficient MRT), dBRD9 250 nM vs DMSO",reduced proliferation
same,expression of genes closest to fusion-dependent sites,[7],did not change
same,SS18-SSX-mediated gene activation,[8],did not attenuate
